Data taken from PMC7179907, “Novel AXL-specific inhibitor ameliorates kidney dysfunction through the inhibition of epithelial-to-mesenchymal transition of renal tubular cells” (PLoS ONE, 2020).

Columns and labels:
NEP25 mice = assay: NEP25 mouse model of glomerular nephritis (LMB2-induced); assay type: in vivo
Description: NEP25 mice, heterozygous podocyte-specific hCD25 transgenic mice, were bred in Tokai University and kindly provided by Matsusaka et al.. All mice were kept in well-controlled animal housing with free access to water and pellet food. Animal procedures and protocols were in accordance with the Guidelines for the Care and Use of Laboratory Animals at Chugai Pharmaceutical Co. Ltd. and approved by the Institutional Animal Care and Use Committee.
To induce disease, NEP25 mice were injected with 0.8 μg/kg of the immunotoxin LMB2 (provided from National Institutes of Health, USA) via the tail vein, except in the normal control group (n = 4). CH5451098 powder was suspended in a 0.5% carboxymethyl cellulose solution to prepare 1.0 mg/mL. Mice were divided into 2 groups and were orally administered vehicle (disease group, n = 10) or CH5451098 10 mg/kg once daily for 21 days (CH5451098 group, n = 10) from one day before LMB2 injection. The dose of CH5451098 was set high enough to inhibit AXL kinase activity throughout the day. Mice not treated with LMB2 were used as normal control.
Blood and urine samples were collected on day 7, 14, or, 21 after LMB2 injection. Blood samples were collected from the abdominal portion of the vena cava under isoflurane anesthesia and were centrifuged to obtain serum samples. Urine samples were collected for 24 hours using a metabolic cage. The mice were euthanized by exsanguination under isoflurane anesthesia at day 22 after LMB2 injection. Kidney tissues were dissected for pathology (formalin-fixed or methyl carnoy-fixed) and kidney cortex samples were collected and snap frozen in liquid nitrogen.
Serum urea nitrogen (BUN), creatinine (sCre) and urinary albumin (uAlb), N-Acetyl-beta-D Glucosaminidase (NAG), and creatinine were measured using an automatic analyzer (Hitachi 7100 Autoanlayzer, Hitachi Co., Ltd. Tokyo, Japan).
RNA samples were extracted from frozen mouse kidney cortex or NRK-52E cells using an RNaesy Mini kit (QIAGEN, Hilden, Germany). cDNA were synthesized from RNA using a reverse transcription kit (Roche applied science, Penzberg, Germany). Expression levels were measured by a LightCycler 480 (Roche Applied science) using TaqMan probe/primer sets for each gene (Thermo Fisher Scientific). […]

NRK-52E cells = assay: EMT induced by TGFβ1 and Gas6 in NRK-52E cells (mRNA expression); assay type: cell-based, rat; settings: CH5451098 1 nmol/L; mTGFβ1 2 ng/mL and mGas6 500 ng/mL; 2 hours
Description: RNA samples were extracted from frozen mouse kidney cortex or NRK-52E cells using an RNaesy Mini kit (QIAGEN, Hilden, Germany). cDNA were synthesized from RNA using a reverse transcription kit (Roche applied science, Penzberg, Germany). Expression levels were measured by a LightCycler 480 (Roche Applied science) using TaqMan probe/primer sets for each gene (Thermo Fisher Scientific).
NRK-52E cell line derived from rat renal tubular epithelial cells was purchased from ATCC (Manassas, VA) and cultured in Dulbecco’s modified eagle’s medium with high glucose media supplemented with 5% FBS at 37°C under 5% CO 2 and 95% air.
NRK-52E cells were seeded onto a collagen-coated plate and were cultured over-night. After reaching subconfluence, cells were cultured in serum restricted medium (0.5% FBS) for 6 hours. Then the cells were stimulated with recombinant mTGFβ1 (2 ng/mL) and/or recombinant mGas6 (500 ng/mL) followed by treatment with or without CH5451098 (1 nmol/L) for 15 minutes. The cells were lysed with RLT buffer (Qiagen) after 2 hours incubation with stimulants and mRNA was purified using RNeasy mini kit (Qiagen).

AXL = target: T1, AXL (Homo sapiens, UniProt P30530); assay: Protein kinase assay, AXL; assay type: biochemical; settings: recombinant AXL, 1.5 hours treatment, n = 2; read-out: IC50 against AXL kinase activity
T1 construct: purchased Carna Biosciences (Kobe, Japan)
T1 sequence (P30530 26-894): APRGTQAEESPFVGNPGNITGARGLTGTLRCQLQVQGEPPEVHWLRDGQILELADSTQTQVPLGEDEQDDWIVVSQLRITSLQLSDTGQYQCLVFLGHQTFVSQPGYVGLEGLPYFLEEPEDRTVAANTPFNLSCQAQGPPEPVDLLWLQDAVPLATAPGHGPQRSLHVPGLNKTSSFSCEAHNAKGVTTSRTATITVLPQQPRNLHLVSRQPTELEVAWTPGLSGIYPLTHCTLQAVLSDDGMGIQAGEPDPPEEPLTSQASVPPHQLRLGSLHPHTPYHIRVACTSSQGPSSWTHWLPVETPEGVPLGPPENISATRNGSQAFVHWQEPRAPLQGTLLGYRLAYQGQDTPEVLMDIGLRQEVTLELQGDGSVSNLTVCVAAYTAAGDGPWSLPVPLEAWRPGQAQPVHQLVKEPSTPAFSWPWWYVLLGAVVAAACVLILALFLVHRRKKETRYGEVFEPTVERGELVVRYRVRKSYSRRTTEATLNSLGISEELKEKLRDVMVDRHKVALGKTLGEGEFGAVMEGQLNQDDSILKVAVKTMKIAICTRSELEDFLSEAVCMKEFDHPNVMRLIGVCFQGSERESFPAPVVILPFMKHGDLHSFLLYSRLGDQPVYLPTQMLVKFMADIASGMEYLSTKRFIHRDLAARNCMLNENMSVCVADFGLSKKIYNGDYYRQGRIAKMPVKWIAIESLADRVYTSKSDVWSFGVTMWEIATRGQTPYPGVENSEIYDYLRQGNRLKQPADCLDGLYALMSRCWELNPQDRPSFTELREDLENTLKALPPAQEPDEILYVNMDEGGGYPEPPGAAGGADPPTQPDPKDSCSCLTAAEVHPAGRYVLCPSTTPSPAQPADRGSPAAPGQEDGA
From the text: (§1) CH5451098 (N-cyclopropyl-2-[2-[8-[(2R)-2,3-dihydroxypropoxy]-6,6-dimethyl-11-oxo-naphtho[2,3-b]benzofuran-3-yl]ethynyl]pyridine-4-carboxamide), a selective inhibitor of AXL, was synthesized at Chugai Pharmaceutical Co. Ltd. (Fig 1). The following recombinant proteins were used for the kinase assay: AXL, Mer, Tyro3, Flt3, JAK2, EGFR, HER2, KIT, PDGFRβ, FGFR2, KDR, MET, ALK, EPHA2, EPHB2, FAK, SRC, ABL, ERK1, PKA, AKT1, PKACα, PKACβ1, AurA, CHK1, CHK2, MNK1, CDK1, and p38α from Carna Biosciences (Kobe, Japan), and Raf1 from Thermo Fisher Scientific (Waltham, MA). Recombinant mouse TGFβ1 (mTGFβ1) and recombinant mouse Gas6 (mGas6) were purchased from R&D systems. All other chemicals were of the highest purity available. The following primary antibodies were used for this study: anti-beta catenin (8480), anti-zinc finger E-box-binding homeobox 1 (Zeb1) (3396), anti-glyceraldehyde-3-phosphate dehydrogenase (GAPDH) (8884) antibody from Cell Signaling Technology (Danvers, MA). […]
(§2) Protein kinases were purchased from Carna Biosciences or Millipore. The inhibitory activity against each kinase was evaluated as described previously.
(§3) Fig 2 In vitro kinase inhibitory activity of CH5451098. […] Enzyme inhibitory activity was calculated by the formula (1-T/C) x 100 (%), where T represents the measured value of the wells with a compound and C represents that of wells without a compound (n = 2). […]

[1] = test system: 30 kinases including the TAM family (Tyro3, AXL and, Mer) of receptor tyrosine kinases; assay: 30 kinase inhibitory assays (selectivity); assay type: biochemical; settings: Fig 2B
From the text: as §1, §2, §3

[2] = 10 mg/kg once daily 21 days, kidney cortex, vs disease control
[3] = 10 mg/kg once daily 21 days, vs disease control
[4] = 10 mg/kg orally once daily 21 days, blood 24 hours after final administration, mean ± SE, p<0.01 vs disease control
[5] = kidney cortex, 3 weeks after disease induction, vs disease control

## CC1(C)c2cc(OC[C@H](O)CO)ccc2C(=O)c2c1oc1cc(C#Cc3cc(C(=O)NC4CC4)ccn3)ccc21 [CH5451098, N-cyclopropyl-2-[2-[8-[(2R)-2,3-dihydroxypropoxy]-6,6-dimethyl-11-oxo-naphtho[2,3-b]benzofuran-3-yl]ethynyl]pyridine-4-carboxamide]
NEP25 mice; 10 mg/kg once daily 21 days, 3 weeks after disease induction, vs disease control
  uAlb excretion: significantly decreased
NEP25 mice; [2]
  Renal LCN2 mRNA: significantly decreased
  kidney Col1a1 mRNA: significantly reduced
  kidney OH-Pro content: suppressed
  kidney Pai1 mRNA: significantly inhibited
  kidney Snai1 mRNA: did not reduce
  kidney TGFβ1 mRNA expression: only a partial reduction
  kidney Twist1 mRNA: tended to suppress
  kidney Zeb1 mRNA: suppressed
NEP25 mice; 10 mg/kg once daily 21 days, urine 0 to 24 hours after final administration, vs disease control
  Urinary NAG excretion: significantly inhibited
NEP25 mice; [3]
  abundance of stained connective tissue (Sirius red and Masson's Trichrome staining): inhibited
  destruction of glomerular structure (periodic acid-Schiff stain): ameliorated
  tubulointerstitial fibrosis (semi-quantitative score, Masson's trichrome): significantly suppressed
NEP25 mice; [4]
  BUN: 55 ± 5.0 mg/dL
  Serum creatinine (sCre): 0.15 ± 0.019 mg/dL
NEP25 mice; 2 weeks after disease induction, compared to DC group, data not shown
  uAlb leakage: no effect
NEP25 mice; [5]
  kidney Zeb1 protein level (western blotting): reduced
  kidney beta-catenin protein level (western blotting): reduced
NRK-52E cells
  LCN2 mRNA induced by Gas6 and TGFβ1: inhibited
  Snai1 mRNA induced by Gas6 along with TGFβ1: markedly inhibited
  Twist1 mRNA induced by Gas6 along with TGFβ1: markedly inhibited
  Zeb1 mRNA induced by Gas6 along with TGFβ1: markedly inhibited
  enhancement of Pai1 mRNA: suppressed
  enhancement of TGFβ1 mRNA: suppressed
AXL
  IC50: 3.8 nM
[1]
  selectivity against other kinases: strongest inhibitory activity towards AXL among 30 kinases
